Source: ChEMBL document CHEMBL1201862, “PubChem BioAssay data set” (2004)
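Dose response: 5 concentrations. Exposure: 48 h. Format: 96-well plates. Endpoint: linear interpolation; highest concentration if not reached. GI50: concentration for 50% inhibition of growth.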 Calls of active or inactive are those of the source. No stated cut-off is given here; in the data, active = GI50 up to about 1.1 µM and inactive = higher. Where a SMILES comes first, the peptide text is derived from it.

Experiments:
Test in all cases: growth of human tumour cells (NCI), 48 h
[1] = test system: T47D
[2] = test system: MDA-MB-435
[3] = test system: BT-549
[4] = test system: PC-3
[5] = test system: DU-145
[6] = test system: MDA-N
[7] = test system: RXF 631
[8] = test system: LXFL 529
[9] = test system: 786-0

Row | Structure (SMILES) | GI50 [2] | GI50 [3] | GI50 [4] | GI50 [5] | GI50 [6] | GI50 [8] | further results
1 | CO/N=C1\CC(NC(=O)CNC(=O)OC(C)(C)C)c2ccsc21 (stereo unspecified) | 90.6 µM (inactive) | > 100 µM (inactive) | > 100 µM (inactive) | > 100 µM (inactive) | 49.2 µM (inactive) | – | GI50 [1]: > 100 µM (inactive)
2 | COc1nc(NC2OCC(OC(C)=O)C(OC(C)=O)C2OC(C)=O)c(/N=C(\C)C(C)=O)c(=O)n1C (stereo unspecified) | – | – | – | – | – | – | GI50 [7]: > 100 µM (inactive)
3 | Nc1nc(=O)[nH]c2c1cnn2Cc1ccccc1 | – | – | – | – | – | > 100 µM (inactive) | GI50 [7]: > 100 µM (inactive)
4 | N#CCCN(CCC#N)c1ccc(/C=C(\NC(=O)c2cc([N+](=O)[O-])ccc2Cl)C(=O)Nc2ccccc2)cc1 | – | – | – | – | – | 10.5 µM (inactive) | –
5 | Cc1cc(O)nc(NN2C(Cl)C(=O)C2c2ccc([N+](=O)[O-])cc2)n1 (stereo unspecified) | – | – | – | – | – | 7.67 µM (inactive) | –
6 | CCOc1ccc(/C=C2\N=C(c3ccccc3)OC2=O)cc1 | > 100 µM (inactive) | > 100 µM (inactive) | > 100 µM (inactive) | – | – | – | –
7 | NCCCCC(N)C(=O)N1CCN(c2nc(N3CCCC3)c3nc(Cl)c(NCc4ccccc4)nc3n2)CC1 (stereo unspecified) | 23.2 µM (inactive) | 18.5 µM (inactive) | 17.8 µM (inactive) | 16.9 µM (inactive) | 17.7 µM (inactive) | – | GI50 [9]: 17.8 µM (inactive)
8 | CCCCN1C(=O)NC(Cc2ccccc2)C1=O (stereo unspecified) | – | – | – | – | – | > 100 µM (inactive) | –
9 | NC(=O)C1CCCN1C(=O)C(N)Cc1ccccc1 (stereo not drawn) (H-Phe-Pro-NH2; configuration not given here) | > 100 µM (inactive) | – | > 100 µM (inactive) | > 100 µM (inactive) | > 100 µM (inactive) | – | GI50 [1]: > 100 µM (inactive)
